From patent publication US7070917B1, “Determination of sperm concentration and viability for artificial insemination” (priority 2000, dated 2006)

How the values were obtained:
sperm cells = test: Toxicity of SYBR-14 staining to sperm cells (decrease in live sperm cells over time); assay type: cell-based
bull sperm = test: Flow cytometric (FACSCount) determination of sperm viability over staining time in bull ejaculates; assay type: cell-based; details: FACSCount blue laser (488 nm); SYBR-14 50 nM with PI 12 μM; replicates at 4 and 6 min staining, room temperature
Procedure: A two-step dilution is necessary for the flow cytometric analyses. First, the sample is diluted 250× in a PBS medium containing 0.1% BSA, (NUNC Intermed Cat# 3478880, Lifetechnologies, Roskilde, Denmark), and second a 20 μl sample is transferred to a Sperm Count tube containing approximately 100,000 beads using reverse manual pipetting. The dyes were added to the Sperm Count tubes less than 12 hours before using the tubes in the analysing procedure. As mentioned above, two different flow cytometers were used, one being a FACSCount equipped with a green (543 nm) laser and the second being a FACSCount equipped with a blue (488 nm) laser.
To each Sperm Count tube to be analysed in the first FACSCount (543 nm), 2 μl of MPR71292 and 2 μl of EHD-2 were added to provide final concentrations of 100 nM and 5 μM, respectively.
To each Sperm Count tube to be analysed in the second FACSCount (488 nm), 5 μl of SYBR-14 and 5 μl of PI were added to provide for final concentrations of 50 nM and 12 μM, respectively.
Prior to opening the Sperm Count tubes, the tubes were whirlmixed for 3 sec in an upside-down position and for 3 sec in a normal position. Whirlmixing were repeated for two sec after addition of the sperm and before each analysis. […] After 4 min, the first replicates were analysed simultaneously on the two flow cytometers and the second replicates were analysed after a 6 min staining period. […]

SYBR-14
decrease in the amount of live sperm cells (sperm cells; SYBR-14 below standard concentrations (25 to 75 nanomolar, about 50 nanomolar)): no decrease
decrease in the amount of live sperm cells (sperm cells; SYBR-14 concentration of 100 nM): 0.6 % pr minute
toxicity to spermatozoa (sperm cells; standard concentrations (100 nM), staining time 10 to 15 minutes): slightly toxic
decrease in sperm viability over time (bull sperm): −0.15±0.07 %/min
